Where two headings read alike, the source gives them in different places.
Legend:
[1] = Clinical pharmacokinetics in healthy subjects (Studies RVT-1201-1001 and KAR5585-101); assay type: in vivo, human
Protocol: Clinical Study RVT-1201-1001 was a single and repeat dose study of RVT-1201 in healthy subjects to evaluate the pharmacokinetic profile of RVT-1201 and its active metabolite KAR5417. In Part 1 of this study, a single oral dose of 400 mg RVT-120 was administered as an oral powder in Regimen A and B, and as immediate release tablets in Regimen C, to 9 healthy male subjects. In addition, a single 1200 mg dose as immediate release tablets was administered in Regimen D.
Following oral administration in the fed state, RVT-1201 was well absorbed and peak plasma levels were achieved after a median time of 2.5 h. […] The planned clinical dose schedule of RVT-1201 in ELEVATE2 is up to 600 mg BID. […] The geometric mean apparent clearance was 900 L/h after oral administration in Regimen C of Clinical Study RVT-1201-1001. Elimination of RVT-1201 was rapid, and primarily facilitated by hydrolysis to KAR5417. Formation of KAR5417 was attributed to de-esterification of RVT-1201.
KAR5417 is rapidly formed after oral administration of RVT-1201.
Data from two clinical studies were used to verify the PBPK model (Clinical Study KAR5585-101 and Clinical Study RVT-1201-1001). Clinical Study KAR5585-101 was a randomized, double blind, placebo-controlled, Phase 1, first-in-human study to characterize the pharmacokinetics of single and multiple ascending doses of RVT-1201 in healthy subjects. RVT-1201 and KAR5417 plasma concentration data on Day 1, 7 and 14 of 400 mg BID administration in fed subjects were used to support verification of the PBPK model. In addition, multiple dose RVT-1201 and KAR5417 plasma concentration data on Day 1, 7 and 14 of 400 mg or 800 mg BID administration in fed subjects in Clinical Study RVT-1201-1001 were also used to support model verification.

[2] = Biopharmaceutics Classification System class; assay type: physicochemical
From the text: RVT-1201 is a Biopharmaceutics Classification System (BCS) Class II or IV molecule with in vitro permeability consistent with oral bioavailability, which has been evaluated in a Phase 1 single ascending dose (SAD)/multiple ascending dose (MAD) study using a simple immediate release (IR) drug-in-capsule formulation (Clinical Study KAR5585-101). The active pharmaceutical ingredient used in this clinical study was polymorph Form 1. An optimized/enhanced oral formulation was developed with a goal to improve patient acceptance, increase the oral bioavailability relative to the IR capsule formulation to facilitate a dose reduction, reduce inter-subject variability and to optimize a formulation process suitable for larger scale manufacture. An oral IR tablet formulation and 2 spray-dried dispersion suspensions using polymorph Form 3 were investigated in a second clinical study (Clinical Study RVT-1201-1001). The purpose of this study was to assess the performance of selected formulations following oral administration to healthy subjects.

MATE1 = biological target: T1, MATE1 (Homo sapiens, UniProt Q96FL8); experiment: In vitro transporter substrate assessment; assay type: in vitro ADME
T1 sequence (Q96FL8 1-570): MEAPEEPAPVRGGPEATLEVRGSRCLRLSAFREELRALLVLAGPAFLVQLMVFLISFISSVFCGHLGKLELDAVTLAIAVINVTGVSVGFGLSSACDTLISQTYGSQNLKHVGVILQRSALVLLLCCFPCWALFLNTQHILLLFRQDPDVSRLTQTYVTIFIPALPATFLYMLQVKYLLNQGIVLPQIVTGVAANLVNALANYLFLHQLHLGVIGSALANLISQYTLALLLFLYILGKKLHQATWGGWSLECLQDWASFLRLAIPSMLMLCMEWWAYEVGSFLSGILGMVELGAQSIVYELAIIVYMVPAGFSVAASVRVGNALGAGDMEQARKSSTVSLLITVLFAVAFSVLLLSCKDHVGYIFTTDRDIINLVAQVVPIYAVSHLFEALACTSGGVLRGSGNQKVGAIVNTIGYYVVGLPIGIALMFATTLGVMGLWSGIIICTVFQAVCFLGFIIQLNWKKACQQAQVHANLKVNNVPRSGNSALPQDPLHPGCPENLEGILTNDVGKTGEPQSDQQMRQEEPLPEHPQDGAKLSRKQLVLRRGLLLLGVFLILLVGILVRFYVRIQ
From the text: Consequently, the elimination of rodatristat into bile may be impacted by co-administration with agents that are BCRP inhibitors.

[3] = Rat 14C study, fraction of oral dose absorbed; assay type: in vivo
From the text: Calculation of Cmax, u, portal uses plasma Cmax, fraction of an oral dose absorbed (Fa) and measured unbound fraction in blood. For rodatristat, experimentally derived values were used for Fa determined in a rat 14C study (20%) and in vitro binding to human plasma (99.1%) and blood:plasma distribution (RB, 0.72). Walsky et al proposed a threshold where the ratio of Cmax, u, portal/Ki of <0.1 is associated with low risk. […] In the rat, the RE:R is ˜3-fold higher in portal blood compared to the periphery.

[4] = Metabolic stability in liver preparations across species; assay type: in vitro ADME
From the text: The metabolism of rodatristat ethyl is predominantly by esterase mediated hydrolysis of the ester pro-drug moiety to rodatristat in liver tissue preparations from human, rat, dog, and cynomolgus monkey, and intestinal and lung tissues from rat and human. Hydrolysis of rodatristat ethyl was also observed in rat blood, and to a much lesser extent in dog and human blood.

Row | half-life ([1]; human, plasma, oral, 400 mg BID dosing, read-out: Average geometric mean plasma terminal t1/2 (converted)) | Geometric mean apparent clearance ([1]; oral, Regimen C (400 mg single dose, fed)) | Median time to peak plasma levels ([1]; oral, fed state, healthy subjects) | Accumulation after multiple dosing ([1]; twice daily schedule, up to 600 mg BID, expected) | Biopharmaceutics Classification System (BCS) Class [2] | In vitro substrate? MATE1 (MATE1) | Fraction of an oral dose absorbed (Fa) [3] | Metabolic stability in liver preparations [4] | Cmax greater than the Cmax of RVT-1201 ([1]; Regimen C, 400 mg single dose of RVT-1201) | half-life ([1]; male, human, plasma, 400 mg, after oral RVT-1201, Regimen C, read-out: Geometric mean plasma terminal t1/2 (converted)) | Cmax ([1]; male, human, plasma, oral, Regimen C, 400 mg single dose of RVT-1201, read-out: Geometric mean Cmax) | Tmax ([1]; male, human, plasma, oral, Regimen C, 400 mg single dose of RVT-1201, read-out: Median Tmax) | SMILES
1 | 5.2 h | 900 L/h | 2.5 h | < 1.5 fold | II or IV |  |  |  |  |  |  |  | CCOC(=O)[C@@H]1CC2(CCN(c3cc(O[C@H](c4ccc(Cl)cc4-c4ccccc4)C(F)(F)F)nc(N)n3)CC2)CN1 [Rodatristat ethyl, (S)-ethyl 8-(2-amino-6-((R)-1-(5-chloro-[1,1′-biphenyl]-2-yl)-2,2,2-trifluoroethoxy)pyrimidin-4-yl)-2,8-diazaspiro[4.5]decane-3-carboxylate]
2 |  |  |  |  |  | not an in vitro substrate and No | 20% | metabolically stable | approximately 5 fold | 12.3 h | 517 ng/mL | 3.5 h | Nc1nc(O[C@H](c2ccc(Cl)cc2-c2ccccc2)C(F)(F)F)cc(N2CCC3(CC2)CN[C@H](C(=O)O)C3)n1 [Rodatristat, (S)-8-(2-amino-6-((R)-1-(5-chloro-[1,1′-biphenyl]-2-yl)-2,2,2-trifluoroeth-oxy)pyrimidin-4-yl)-2,8-diazaspiro[4.5]decane-3-carboxylic acid]

Source: patent US20230074252A1, “DOSAGES AND METHODS FOR TREATING PULMONARY ARTERIAL HYPERTENSION WITH RODATRISTAT” (Altavant Sciences GmbH, priority 2020, published 2023)
